The values below come from patent publication US7517870B2, “Use of compounds that interfere with the hedgehog signaling pathway for the manufacture of a medicament for preventing, inhibiting, and/or reversing ocular diseases related with ocular neovascularization” (Fondazione Telethon, priority 2004, dated 2009).

Series [1] has as its system retinal (ocular) neovascularization. As to the kind of experiment: Angiography after fluorescein-dextran perfusion in mouse model of Retinopathy of Prematurity (ROP). The note with it: ROP mice. The class given is in vivo, C57/BL6 mice.
Description: To determine whether inhibition of the Shh signaling pathway by administration of an siRNA targeting Shh is able to reduce retinal (ocular) neovascularization, siRNA targeting Shh is administrated to a mouse model of Retinopathy of Prematurity (ROP).
C57/BL6 mice are used in this study. Mice from postnatal day 7 (P7) to P12 are exposed to hyperoxia (25% nitrogen, 75% oxygen). At P12 mice return to room air until P17. The group of five mice treated with siRNA targeting Shh receive a daily subretinal injection (1 μl) of 100 mg/ml siRNA targeting Shh dissolved in Phosphate-Buffered Saline (PBS) from P12 to P17, controls receive the vehicle alone.
In a further series the test system is Hh-dependent tumors. The note with it: mice that carry Hh-dependent tumors; cited from earlier work.
In series [2] the test system is VEGF protein expression in 293 cells. As to conditions: HEK-293 cells, desferroxamine 100 μM, Cyclopamine 10 μM, 24 hours. The procedure:
Five μl of 95% ethanol was added to untreated control.
Twenty-four hours after induction of hypoxia the supernatant of the 293 cells was removed from wells and a human VEGF ELISA (R & D Systems, Minneapolis, Minn.) was performed on the cell supernatants (FIG. 4) as described in the Quantikine human VEGF ELISA protocol using a dilution of
the medium of 1:10. ELISA results were read on a Bio-Rad Reader 550 ELISA plate reader (Bio-Rad Laboratories, Inc, CA).

Where [3] appears, read: daily subretinal injection (1 μl) of 100 mg/ml siRNA in PBS from P12 to P17, angiography on P17, vs vehicle control eyes.

Take “siRNA targeting Shh: siRNA duplex, SEQ ID NO:16 (sense strand) and SEQ ID NO:15 (antisense strand) (sense AAUUACAACCCCGACAUCAUAUU; antisense UAUGAUGUCGGGGUUGUAAUUUU; listed as RNA, chemistry not given here)”: the “inhibition of ocular neovascularization (neovascular tufts and vessel leakage)” value (shortened to “inhibition of ocular neovascularization”) in series [1] (setting [3]) is reported as “Robust inhibition of ocular neovascularization”.
Still for that read-out and setting: to “siRNA targeting Gli1: siRNA duplex, SEQ ID NO:19 (sense strand) and SEQ ID NO:20 (antisense strand) (sense ACGCCGCAGCAGCAGCUCCUU; antisense GGAGCUGCUGCUGCGGCGUUU; listed as RNA, chemistry not given here)” belongs “Robust inhibition of ocular neovascularization”; to “siRNA targeting Smoothened: siRNA duplex, SEQ ID NO:17 (sense strand) and SEQ ID NO:18 (antisense strand) (sense AAGGCCUUCUCUAAGCGGCAUU; antisense UGCCGCUUAGAGAAGGCCUUUU; listed as RNA, chemistry not given here)”, “Robust inhibition of ocular neovascularization”.
As for `CC1=C2C[C@H]3[C@@H](CC=C4C[C@@H](O)CC[C@@]43C)[C@@H]2CC[C@]12O[C@@H]1C[C@H](C)CN[C@H]1[C@H]2C` [cyclopamine], in the series on Hh-dependent tumors, the “effect on Hh-dependent tumors” value is “growth inhibition and regression of cancerous tissue”; the “health of treated animals” value was “does not affect the health of treated animals”. Also, in series [1] (daily subcutaneous injection of 50 mg/kg from P12 to P17, angiography on P17, vs vehicle control eyes), the “inhibition of ocular neovascularization” value is “Robust inhibition of ocular neovascularization”. Besides, the “inhibition of hypoxia-induced VEGF expression” value in series [2] was “Able to Inhibit Hypoxia-Induced VEGF Expression”.

B1: soluble Hip1: secreted form of Hedgehog interacting protein 1 lacking the transmembrane domain (SEQ ID NO:6), produced in 293 cells (protein, listed as Mus musculus)
chain: MLKMLSFKLLLLAVALGFFEGDAKFGERNEGSGARRRRCLNGNPPKRLKRRDRRVMSQLELLSGGEILCGGFYPRVSCCLQSDSPGLGRLENKIFSATNNSECSRLLEEIQCAPCSPHSQSLFYTPERDVLDGDLALPLLCKDYCKEFFYTCRGHIPGLLQTTADEFCFYYARKDAGLCFPDFPRKQVRGPASNYLGQMEDYEKVGGISRKHKHNCLCVQEVMSGLRQPVSAVHSGDGSHRLFILEKEGYVKILTPEGELFKEPYLDIHKLVQSGIKGGDERGLLSLAFHPNYKKNGKLYVSYTTNQERWAIGPHDHILRVVEYTVSRKNPHQVDVRTARVFLEVAELHRKHLGGQLLFGPDGFLYIILGDGMITLDDMEEMDGLSDFTGSVLRLDVDTDMCNVPYSIPRSNPHFNSTNQPPEVFAHGLHDPGRCAVDRHPTDININLTILCSDSNGKNRSSARILQIIKGRGYESEPSLLEFKPFSNGPLVGGFVYRGCQSERLYGSYVFGDRNGNFLTLQQSPVTKQWQEKPLCLGASSSCRGYFSGHILGFGEDELGEVYILSSSKSMTQTHNGKLYKIVDPKRPLMPEECRVTVQPAQPLTSDCSRLCRNGYYTPTGKCCCSPGWEGDFCRIAKCEPACRHGGVCVRPNKCLCKKGYLGPQCEQVDRNVRRVTR
As for B1, in series [1] (daily subretinal injection of 50 mg/kg in PBS from P12 to P17, angiography on P17, vs vehicle control eyes), the “inhibition of ocular neovascularization” value is listed as “Robust inhibition of ocular neovascularization”.
